Results from PMC6387968, “An in vitro ADME and in vivo Pharmacokinetic Study of Novel TB-Active Decoquinate Derivatives” (Frontiers in Pharmacology, 2019).

Legend:
physchem [1] = format: physicochemical; conditions: 22 °C, pH 7.4, aqueous buffer, kinetic from dmso stock
Protocol: Stock solutions of each compound prepared in DMSO (10 mM) were spiked in duplicate into phosphate buffer at pH 7.4 (final concentration = 200 μM). Calibration samples were prepared by spiking individual compounds in DMSO at 11, 100, and 220 μM. These were used to generate a calibration curve to determine compound concentrations in the test samples. The samples were agitated for 2 h using a plate shaker (500 rpm, 22°C). Approximately 150 μL of the resulting supernatant was transferred to a 96-well analysis plate and the calibration and test samples were analyzed via HPLC with a diode array detector (Agilent 1200 Rapid Resolution HPLC, Agilent Technologies, Santa Clara, CA, United States) comprising a reverse-phase Gemini-C18 analytical column (5 μm, 50 mm × 2 mm; Phenomenex, Torrance, CA, United States). Mobile phases comprised 0.1% FA in water (A) and 0.1% FA in ACN (B). The run lasted 3 min and a gradient elution method was used (Table 1).

physchem [2] = format: physicochemical; conditions: pH 7.4
Protocol: The plate was agitated for 2 h at 22°C and 500 rpm. […] The different layers were analyzed to obtain a logD value.

in vitro [3] = format: in vitro ADME
Protocol: Compound solutions prepared in DMSO were diluted in phosphate buffer (final concentration = 1 μg/mL), and were spiked into human plasma and microsomal fractions (total volume = 1 mL). Aliquots were then transferred in duplicate to: (i) a final concentration plate that was immediately quenched with 23.6 ng/mL internal standard (IS, carbamazepine) in ACN, (ii) a degradation control, which was placed in a water bath at 37°C for 4 h, and (iii) ultracentrifuge tubes, which were centrifuged for 4 h at 37°C and 30 000 × g. All reactions were stopped by the addition of ACN containing 23.6 ng/mL carbamazepine. The samples were subjected to liquid chromatography-tandem mass spectrometry (LC-MS/MS) analysis on an AB Sciex 4000 Q Trap hybrid triple quadrupole linear ion-trap MS (AB Sciex, Framingham, MA, United States) coupled to an Agilent 1200 HPLC (Agilent) with a reverse-phase Gemini-C18 analytical column (5 μm, 50 mm × 2 mm; Phenomenex) at 35°C. Mobile phases comprised 0.1% FA in water, and 0.1% FA in ACN. The flow rate was 600 μL/min with a run time of 6 min. A gradient elution was employed (Table 2).

[4] = format: in vitro ADME; conditions: pH 7.4
Protocol: The permeability of the compounds was assessed via a PAMPA using a 96-well multiscreen filter plate ([…]). The filter plate was coated with 5% hexadecane in hexane and was allowed to dry before starting the assay. Lucifer yellow was added to the apical side of the filter plate in each well containing test compound solutions prepared in DMSO. A solution of each compound was diluted into phosphate buffer at pH 7.4 (final concentration = 1 μg/mL) and was added to the apical portion of the donor plate. The acceptor plate was filled with blank buffer (pH 7.4). The plates were slotted into each other and agitated at 80 rpm for 4 h at 22°C. Samples from donor and theoretical equilibrium wells were matrix-matched with blank phosphate buffer at pH 7.4. Samples were treated with ACN containing IS (carbamazepine, 23.6 ng/mL) and were submitted for LC-MS/MS analysis on an Agilent Rapid Resolution HPLC and AB Sciex 4500 MS. […] [Wohnsland and Faller, 2001]; [Jung et al., 2006]). where, VA is the volume of the acceptor compartment (0.25 cm^3), VD is the volume of the donor compartment (0.15 cm^3), A is the accessible filter area (0.024 cm^2), and t is the incubation time (s). The peak areas of the samples were used to determine the Papp of each compound using Eq. 3. Papp=C × -ln(1-Acceptor […]/Donor […])

in vitro [5] = format: in vitro ADME; conditions: for EH (hepatic extraction ratio) Human / EH (hepatic extraction ratio) Mouse: 0.1 M; for half-life at 0.1 M / microsomal CLint at 0.1 M: microsomes
Protocol: RMB041, -043, and -073 ([…]) prepared in DMSO were incubated separately with 530 μL mouse and human microsomes (0.4 mg/mL) at 37°C with the cofactor NADPH (1 mM). Compounds were assessed at 0 and 60 min. The reaction was stopped by the addition of ice-cold ACN containing IS (carbamazepine, 23.6 ng/mL). The samples were analyzed via LC-MS/MS using the instrumentation and conditions described above. The in vitro half-life, intrinsic clearance rate, and hepatic extraction ratio were predicted using results from this assay in the following equations ([Obach, 1999]). […] EH=Fu × CLint/QH+Fu × CLint Metabolic stability was assessed as the compound's depletion from a starting concentration of […] over 1 h in mouse and human microsomal fractions. The in vitro half-life can be predicted from this assay. The linear regression from a graph relating natural logarithmic percentage of the compound remaining versus the incubation time was used to calculate the half-life, CLint, and EH.

[6] = for Autosampler stability (48 h), Low / Stability, murine whole-blood (-80 °C freeze-thaw), Low / Stability, murine whole-blood (ice, 2 h), Low: 10 ng/mL; for Autosampler stability (48 h), High / IV formulation stability, High / Oral formulation stability, High / Stability, murine whole-blood (-80 °C freeze-thaw), High / Stability, murine whole-blood (ice, 2 h), High: 4000 ng/mL; for IV formulation stability, High / Oral formulation stability, High / Stability, murine whole-blood (ice, 2 h), Low / Stability, murine whole-blood (ice, 2 h), High: 2 h; for Stability, murine whole-blood (-80 °C freeze-thaw), Low / Stability, murine whole-blood (-80 °C freeze-thaw), High / Stability, murine whole-blood (ice, 2 h), Low / Stability, murine whole-blood (ice, 2 h), High: mouse
Protocol: The LC-MS/MS method used was partially validated by assessing recovery from mouse whole-blood, bench-top stability (3 h), auto-sampler stability (48 h), formulation stability (oral and IV, 2 h), freeze-thaw stability (3 cycles), and matrix effects (details in Supplementary Material). Partial method validation, comprising several tests to determine whether the compounds were stable in each possible experimental situation involved with sample collection, storage, and processing, was performed. These tests included: (i) compound stability in mouse whole-blood (on ice and at -80°C), (ii) compound stability in the autosampler, (iii) compound stability in oral and intravenous formulations, (iv) matrix effects (ME), and (v) compound recovery. In this study, stability is reported as a percentage, reflecting the stability of the compound in relation to a fresh sample prepared just before analysis.

Mtb H37Rv = test system: Mtb H37Rv; parameters: method as in Beteck et al., 2018; conditions: in vitro, Mtb H37Rv; ref Beteck et al., 2018; cited from earlier work
[7] = test system: Chinese hamster ovarian (CHO) cell-lines; conditions: cited from earlier work
[8] = human, plasma, Plasma protein (fraction unbound)
[9] = human, plasma, percentage plasma protein binding

Compound | solubility kinetic at 2 h (physchem [1]) [µM] | logD (physchem [2]) | fraction unbound at 4 h, 1 μg/mL (in vitro [3]; human, microsomes) | fraction unbound at 4 h, 1 μg/mL (in vitro [3]; [8]) | fraction unbound at 4 h, 1 μg/mL (in vitro [3]; [9]) | fraction unbound at 4 h, 1 μg/mL (in vitro [3]; microsomes) | PAMPA Log Papp [4] | EH (hepatic extraction ratio) Human (in vitro [5]) | EH (hepatic extraction ratio) Mouse (in vitro [5]) | half-life at 0.1 M (in vitro [5]; human) [h] | microsomal CLint at 0.1 M (in vitro [5]; human) [µL/min/mg] | half-life at 0.1 M (in vitro [5]; mouse) [h] | microsomal CLint at 0.1 M (in vitro [5]; mouse) [µL/min/mg] | Autosampler stability (48 h), Low [6] [%] | Autosampler stability (48 h), High [6] [%] | IV formulation stability, High [6] [%] | Oral formulation stability, High [6] [%] | Stability, murine whole-blood (-80 °C freeze-thaw), Low [6] [%] | Stability, murine whole-blood (-80 °C freeze-thaw), High [6] [%] | Stability, murine whole-blood (ice, 2 h), Low [6] [%] | also measured
CCCCCCCCCCOc1cc2c(=O)c(C(=O)NCCOCCO)cn(CCO)c2cc1OCC [RMB073] | > 150 | 0.36 | 0.114 | 0.16 | 0.156 | 0.11 | -4.5 | <0.43 | <0.3 | > 2.5 | 7.78 | > 2.5 | 15 | 105.3 | 102.0 | 98.8 | 89.3 | 89.5 | 97.3 | 87.6 | Stability, murine whole-blood (ice, 2 h), High [6]: 92.3%; 90% minimum inhibitory concentration (MIC90) (Mtb H37Rv): 1.88 µM; IC50 [7]: 33.9 µM
CCCCCCCCCCOc1cc2c(=O)c(C(=O)NCCOCCO)cn(CC)c2cc1OCC [RMB041] | > 150 | 0.48 | 0.053 | 0.1 | 0.104 | 0.06 | -4.8 | <0.43 | <0.3 | > 2.5 | 16 | > 2.5 | 26.8 | 92.1 | 94.1 | 90.3 | 98.0 | 99.2 | 98.7 | 89.2 | Stability, murine whole-blood (ice, 2 h), High [6]: 91.2%; 90% minimum inhibitory concentration (MIC90) (Mtb H37Rv): 1.61 µM; IC50 [7]: 20 µM
CCCCCCCCCCOc1cc2c(=O)c(C(=O)NCCNCCO)cn(CC)c2cc1OCC [RMB043] | > 150 | 0.84 | 0.053 | 0.23 | 0.221 | 0.06 | -4.8 | 0.4 | 0.51 | 1.42 | 83 | 1 | 109 | 99.8 | 99.1 | 93.1 | 89.0 | 91.3 | 92.5 | 102.4 | Stability, murine whole-blood (ice, 2 h), High [6]: 109.0%; 90% minimum inhibitory concentration (MIC90) (Mtb H37Rv): 4.18 µM; IC50 [7]: 80 µM
